# Structures can show the parent of a compound that is named as a salt.
row,Structure (SMILES),melting point
1,"CCCc1nc2c(N)nc3ccccc3c2n1CCC(N)=O (as salt: hydrochloride) [Example 18, 3-(4-Amino-2-propyl-1H-imidazo[4,5-c]quinolin-1-yl)propanamide hydrochloride]",242 to 243 °C
2,"CCCc1nc2c(N)nc3ccccc3c2n1CCCC(=O)N1CCOCC1 [Example 1, 1-(4-Morpholin-4-yl-4-oxobutyl)-2-propyl-1H-imidazo[4,5-c]quinolin-4-amine]",200 to 202 °C
3,"CCCNC(=O)CCCn1c(CCC)nc2c(N)nc3ccccc3c21 [Example 2, 4-(4-Amino-2-propyl-1H-imidazo[4,5-c]quinolin-1-yl)-N-propylbutanamide]",161 to 163 °C
4,"CCCc1nc2c(N)nc3ccccc3c2n1CCCC(N)=O [Example 4, 4-(4-Amino-2-propyl-1H-imidazo[4,5-c]quinolin-1-yl)butanamide]",249 to 251 °C
5,"CCOCc1nc2c(N)nc3ccccc3c2n1CCCC(=O)N1CCOCC1 [Example 5, 2-(Ethoxymethyl)-1-(4-morpholin-4-yl-4-oxobutyl)-1H-imidazo[4,5-c]quinolin-4-amine]",201 to 203 °C
6,"CCCc1nc2c(N)nc3ccccc3c2n1CCCCCC(=O)N1CCOCC1 [Example 6, 1-(6-Morpholin-4-yl-6-oxohexyl)-2-propyl-1H-imidazo[4,5-c]quinolin-4-amine]",149 to 151 °C
7,"CCCNC(=O)CCCCCn1c(CCC)nc2c(N)nc3ccccc3c21 [Example 7, 6-(4-Amino-2-propyl-1H-imidazo[4,5-c]quinolin-1-yl)-N-propylhexanamide]",139 to 141 °C
8,"CCCc1nc2c(N)nc3ccccc3c2n1CCCCCC(=O)NC [Example 8, 6-(4-Amino-2-propyl-1H-imidazo[4,5-c]quinolin-1-yl)-N-methylhexanamide]",158 to 159 °C
9,"CCCc1nc2c(N)nc3ccccc3c2n1CCCCCC(N)=O [Example 9, 6-(4-Amino-2-propyl-1H-imidazo[4,5-c]quinolin-1-yl)hexanamide]",210 to 211 °C
10,"CCCNC(=O)CCCCCn1cnc2c(N)nc3ccccc3c21 [Example 10, 6-(4-Amino-1H-imidazo[4,5-c]quinolin-1-yl)-N-propylhexanamide]",128 to 130 °C
11,"Nc1nc2ccccc2c2c1ncn2CCCCCC(=O)N1CCOCC1 [Example 11, 1-(6-Morpholin-4-yl-6-oxohexyl)-1H-imidazo[4,5-c]quinolin-4-amine]",166 to 168 °C
12,"COCCc1nc2c(N)nc3ccccc3c2n1CCCCCC(=O)N1CCOCC1 [Example 12, 2-(2-Methoxyethyl)-1-(6-morpholin-4-yl-6-oxohexyl)-1H-imidazo[4,5-c]quinolin-4-amine]",131 to 132 °C
13,"CCOCc1nc2c(N)nc3ccccc3c2n1CCCCCC(=O)N1CCOCC1 [Example 13, 2-(Ethoxymethyl)-1-(6-morpholin-4-yl-6-oxohexyl)-1H-imidazo[4,5-c]quinolin-4-amine]",160 to 162 °C
14,"CCCNC(=O)CCCCCn1c(COCC)nc2c(N)nc3ccccc3c21 [Example 14, 6-[4-Amino-2-(ethoxymethyl)-1H-imidazo[4,5-c]quinolin-1-yl]-N-propylhexanamide]",161 to 162 °C
15,"CCCNC(=O)CCn1c(CCC)nc2c(N)nc3ccccc3c21 [Example 15, 3-(4-Amino-2-propyl-1H-imidazo[4,5-c]quinolin-1-yl)-N-propylpropanamide]",157 to 158 °C
16,"CCCc1nc2c(N)nc3ccccc3c2n1CCC(=O)N1CCOCC1 [Example 16, 1-(3-Morpholin-4-yl-3-oxopropyl)-2-propyl-1H-imidazo[4,5-c]quinolin-4-amine]",172 to 173 °C
17,"CCCc1nc2c(N)nc3ccccc3c2n1CCC(=O)NC [Example 17, 3-(4-Amino-2-propyl-1H-imidazo[4,5-c]quinolin-1-yl)-N-methylpropanamide]",177 to 178 °C
18,"COCCc1nc2c(N)nc3ccccc3c2n1CCC(=O)N1CCOCC1 [Example 19, 2-(2-Methoxyethyl)-1-(3-morpholin-4-yl-3-oxopropyl)-1H-imidazo[4,5-c]quinolin-4-amine]",125 to 126 °C
19,"CNC(=O)CCn1cnc2c(N)nc3ccccc3c21 [Example 20, 3-(4-Amino-1H-imidazo[4,5-c]quinolin-1-yl)-N-methylpropanamide]",> 260 °C
20,"CCCNC(=O)CCn1cnc2c(N)nc3ccccc3c21 [Example 21, 3-(4-Amino-1H-imidazo[4,5-c]quinolin-1-yl)-N-propylpropanamide]",212 to 214 °C
21,"Cc1nc2c(N)nc3ccccc3c2n1CCC(=O)N1CCOCC1 [Example 22, 2-Methyl-1-(3-morpholin-4-yl-3-oxopropyl)-1H-imidazo[4,5-c]quinolin-4-amine]",166 to 169 °C
22,"CCOCc1nc2c(N)nc3ccccc3c2n1CCC(=O)N1CCOCC1 [Example 23, 2-(Ethoxymethyl)-1-(3-morpholin-4-yl-3-oxopropyl)-1H-imidazo[4,5-c]quinolin-4-amine]",187 to 189 °C
23,"CCOCc1nc2c(N)nc3ccccc3c2n1CCC(N)=O [Example 24, 3-[4-Amino-2-(ethoxymethyl)-1H-imidazo[4,5-c]quinolin-1-yl]propanamide]",> 250 °C
24,"CCCc1nc2c(N)nc3ccccc3c2n1CCCCCCCCCCCC(=O)NC [Example 25, 12-(4-Amino-2-propyl-1H-imidazo[4,5-c]quinolin-1-yl)-N-methyldodecanamide]",135 to 137 °C
25,"CCCc1nc2c(N)nc3ccccc3c2n1CC(C)(C)C(N)=O [Example 26, 3-(4-Amino-2-propyl-1H-imidazo[4,5-c]quinolin-1-yl)-2,2-dimethylpropanamide]",219 to 221 °C
26,"CCCc1nc2c(N)nc3ccccc3c2n1CC(C)(C)C(=O)N1CCOCC1 [Example 27, 1-(2,2-Dimethyl-3-morpholin-4-yl-3-oxopropyl)-2-propyl-1H-imidazo[4,5-c]quinolin-4-amine]",212 to 214 °C
27,"CCOCc1nc2c(N)nc3ccccc3c2n1CC(C)(C)C(N)=O [Example 28, 3-[4-Amino-2-(ethoxymethyl)-1H-imidazo[4,5-c]quinolin-1-yl]-2,2-dimethylpropanamide]",241 to 243 °C
28,"CCCc1nc2c(N)nc3c(c2n1CCCC(=O)N1CCOCC1)CCCC3 [Example 29, 1-(4-Morpholin-4-yl-4-oxobutyl)-2-propyl-6,7,8,9-tetrahydro-1H-imidazo[4,5-c]quinolin-4-amine]",181 to 183 °C
29,"CCCc1nc2c(N)nc3c(c2n1CCCCCC(=O)N1CCOCC1)CCCC3 [Example 30, 1-(6-Morpholin-4-yl-6-oxohexyl)-2-propyl-6,7,8,9-tetrahydro-1H-imidazo[4,5-c]quinolin-4-amine]",162 to 163 °C

# Second part, the molecule after the results:
row,melting point,Structure (SMILES)
1,287 to 289 °C,"CC(C)(Cn1cnc2c(N)nc3ccccc3c21)C(N)=O (as salt: salt) [Example 62, 3-(4-Amino-1H-imidazo[4,5-c]quinolin-1-yl)-2,2-dimethylpropanamide]"
2,237 to 239 °C,"Cc1nc2c(N)nc3ccccc3c2n1CCC(N)=O [Example 31, 3-(4-Amino-2-methyl-1H-imidazo[4,5-c]quinolin-1-yl)propanamide]"
3,188 to 189 °C,"CCCNC(=O)CCn1c(C)nc2c(N)nc3ccccc3c21 [Example 32, 3-(4-Amino-2-methyl-1H-imidazo[4,5-c]quinolin-1-yl)-N-propylpropanamide]"
4,233 to 235 °C,"CCOCc1nc2c(N)nc3ccccc3c2n1CCCC(N)=O [Example 33, 4-[4-Amino-2-(ethoxymethyl)-1H-imidazo[4,5-c]quinolin-1-yl]butanamide]"
5,178 to 179 °C,"CCCc1nc2c(N)nc3ccccc3c2n1CCCCC(=O)N1CCOCC1 [Example 34, 1-(5-Morpholin-4-yl-5-oxopentyl)-2-propyl-1H-imidazo[4,5-c]quinolin-4-amine]"
6,202 to 203 °C,"CCCc1nc2c(N)nc3ccccc3c2n1CCCCC(N)=O [Example 35, 5-(4-Amino-2-propyl-1H-imidazo[4,5-c]quinolin-1-yl)pentanamide]"
7,128 to 129 °C,"COCCc1nc2c(N)nc3ccccc3c2n1CCCCC(=O)N1CCOCC1 [Example 36, 2-(2-Methoxyethyl)-1-(5-morpholin-4-yl-5-oxopentyl)-1H-imidazo[4,5-c]quinolin-4-amine]"
8,196 to 197 °C,"CCCc1nc2c(N)nc3cccnc3c2n1CCCC(=O)N1CCOCC1 [Example 37, 1-(4-Morpholin-4-yl-4-oxobutyl)-2-propyl-1H-imidazo[4,5-c][1,5]naphthyridin-4-amine]"
9,156 to 157 °C,"CCOCc1nc2c(N)nc3cccnc3c2n1CCCC(=O)N1CCOCC1 [Example 38, 2-(Ethoxymethyl)-1-(4-morpholin-4-yl-4-oxobutyl)-1H-imidazo[4,5-c][1,5]naphthyridin-4-amine]"
10,231 to 232 °C,"CCOCc1nc2c(N)nc3cccnc3c2n1CCCC(N)=O [Example 39, 4-[4-Amino-2-(ethoxymethyl)-1H-imidazo[4,5-c][1,5]naphthyridin-1-yl]butanamide]"
11,226 to 228 °C,"CCCc1nc2c(N)nc(C)c(C)c2n1CCCC(N)=O [Example 40, 4-(4-Amino-6,7-dimethyl-2-propyl-1H-imidazo[4,5-c]pyridin-1-yl)butanamide]"
12,164 to 165 °C,"CCCc1nc2c(N)nc(C)c(C)c2n1CCCC(=O)N1CCOCC1 [Example 41, 6,7-Dimethyl-1-(4-morpholin-4-yl-4-oxobutyl)-2-propyl-1H-imidazo[4,5-c]pyridin-4-amine]"
13,228 to 230 °C,"CCc1nc2c(N)nc(C)c(C)c2n1CCCC(N)=O [Example 42, 4-(4-Amino-2-ethyl-6,7-dimethyl-1H-imidazo[4,5-c]pyridin-1-yl)butanamide]"
14,209 to 210 °C,"CCc1nc2c(N)nc(C)c(C)c2n1CCCC(=O)N1CCOCC1 [Example 43, 2-Ethyl-6,7-dimethyl-1-(4-morpholin-4-yl-4-oxobutyl)-1H-imidazo[4,5-c]pyridin-4-amine]"
15,199 to 200 °C,"CCOCc1nc2c(N)nc(C)c(C)c2n1CCCC(N)=O [Example 44, 4-[4-Amino-2-(ethoxymethyl)-6,7-dimethyl-1H-imidazo[4,5-c]pyridin-1-yl]butanamide]"
